According to ChEMBL document CHEMBL5236659, “Design, synthesis and antitumor activity of novel thiophene- triazine derivatives bearing arylurea unit as potent PI3K/mTOR inhibitorss” (Bioorg Med Chem, 2023):
Calls of active or inactive are those of the source. No cut-off for these calls is given here.

What was measured:
NCI-H1975 = experiment: Antiproliferative activity against human NCI-H1975 cells overexpressing EGFR L858R/T790M mutant assessed as inhibition of cell growth incubated for 72 hrs by MTT assay; assay type: functional, cell-based; conditions: NCI-H1975, 72 h
NCI-H460 = experiment: Antiproliferative activity against human NCI-H460 cells assessed as inhibition of cell growth incubated for 72 hrs by MTT assay; assay type: functional, cell-based; conditions: NCI-H460, 72 h
MCF7 = experiment: Antiproliferative activity against human MCF7 cells assessed as inhibition of cell growth incubated for 72 hrs by MTT assay; assay type: functional, cell-based; conditions: MCF7, 72 h
[1] = Antiproliferative activity against human U-87 MG cells assessed as inhibition of cell growth incubated for 72 hrs by MTT assay; assay type: functional, cell-based, U-87MG ATCC
A549 = experiment: Antiproliferative activity against human A549 cells assessed as inhibition of cell growth incubated for 72 hrs by MTT assay; assay type: functional, cell-based; conditions: A549, 72 h
HeLa [2] = experiment: Antiproliferative activity against paclitaxel-resistant human HeLa cells assessed as inhibition of cell growth incubated for 72 hrs by MTT assay; assay type: functional, cell-based
[3] = Antiproliferative activity against human OVCAR-2 cells assessed as inhibition of cell growth incubated for 72 hrs by MTT assay; assay type: functional, cell-based; conditions: OVCAR-2, 72 h
[4] = target: T1, Phosphatidylinositol 4,5-bisphosphate 3-kinase catalytic subunit alpha isoform (Homo sapiens, UniProt P42336); experiment: Inhibition of PI3Kalpha (unknown origin) at 1 uM by kinase-glo luminescent assay relative to control
[5] = target: T1, Phosphatidylinositol 4,5-bisphosphate 3-kinase catalytic subunit alpha isoform; experiment: Inhibition of PI3Kalpha (unknown origin) by kinase-glo luminescent assay
HeLa [6] = experiment: Antiproliferative activity against human HeLa cells assessed as inhibition of cell growth incubated for 72 hrs by MTT assay; assay type: functional, cell-based
[7] = Selectivity ratio of IC50 for antiproliferative activity against human HeLa cells to IC50 for antiproliferative activity against paclitaxel-resistant human HeLa cells; assay type: functional
[8] = Selectivity ratio of IC50 for antiproliferative activity against human A549 cells to IC50 for antiproliferative activity against human NCI-H1975 cells overexpressing EGFR L858R/T790M mutant; assay type: functional
[9] = Selectivity ratio of IC50 for antiproliferative activity against human MCF7 cells to IC50 for antiproliferative activity against human U-87 MG cells; assay type: functional
[10] = target: T2, Serine/threonine-protein kinase mTOR (Homo sapiens, UniProt P42345); experiment: Inhibition of mTOR (unknown origin) at 1 uM by kinase-glo luminescent assay relative to control
[11] = target: T2, Serine/threonine-protein kinase mTOR; experiment: Inhibition of mTOR (unknown origin) by kinase-glo luminescent assay
Homo sapiens = species: Homo sapiens; experiment: Selectivity index, ratio of IC50 for inhibition of PI3Kalpha (unknown origin) to IC50 for inhibition of mTOR (unknown origin) by kinase glo luminescent assay
NCI-H2228 = experiment: Antiproliferative activity against human NCI-H2228 cells assessed as inhibition of cell growth incubated for 72 hrs by MTT assay; assay type: functional, cell-based
[12] = target: Vascular endothelial growth factor receptor 2 (Homo sapiens) (UniProt P35968); experiment: Inhibition of KDR (unknown origin) at 1 uM by kinase-glo luminescent assay relative to control
[13] = target: Epidermal growth factor receptor (Homo sapiens) (UniProt P00533); experiment: Inhibition of EGFR (unknown origin) at 1 uM by kinase-glo luminescent assay relative to control
[14] = target: RAC-alpha serine/threonine-protein kinase (Homo sapiens) (UniProt P31749); experiment: Inhibition of AKT1 (unknown origin) at 1 uM by kinase-glo luminescent assay relative to control
Sequence of RAC-alpha serine/threonine-protein kinase (Homo sapiens) (P31749 whole entry): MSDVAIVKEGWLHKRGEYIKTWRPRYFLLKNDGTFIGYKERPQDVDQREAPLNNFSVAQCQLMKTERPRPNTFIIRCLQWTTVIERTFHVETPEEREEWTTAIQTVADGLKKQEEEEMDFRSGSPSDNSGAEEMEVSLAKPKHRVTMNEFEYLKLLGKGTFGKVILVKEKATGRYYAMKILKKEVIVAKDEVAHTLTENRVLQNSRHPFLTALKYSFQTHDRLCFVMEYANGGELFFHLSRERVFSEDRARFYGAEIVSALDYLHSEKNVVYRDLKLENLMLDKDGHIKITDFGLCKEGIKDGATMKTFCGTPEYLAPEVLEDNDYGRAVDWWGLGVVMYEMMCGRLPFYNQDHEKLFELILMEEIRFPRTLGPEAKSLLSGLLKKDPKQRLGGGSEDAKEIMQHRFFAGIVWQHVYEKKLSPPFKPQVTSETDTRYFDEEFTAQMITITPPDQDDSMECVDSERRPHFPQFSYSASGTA

T1 sequence (P42336 whole entry, canonical isoform): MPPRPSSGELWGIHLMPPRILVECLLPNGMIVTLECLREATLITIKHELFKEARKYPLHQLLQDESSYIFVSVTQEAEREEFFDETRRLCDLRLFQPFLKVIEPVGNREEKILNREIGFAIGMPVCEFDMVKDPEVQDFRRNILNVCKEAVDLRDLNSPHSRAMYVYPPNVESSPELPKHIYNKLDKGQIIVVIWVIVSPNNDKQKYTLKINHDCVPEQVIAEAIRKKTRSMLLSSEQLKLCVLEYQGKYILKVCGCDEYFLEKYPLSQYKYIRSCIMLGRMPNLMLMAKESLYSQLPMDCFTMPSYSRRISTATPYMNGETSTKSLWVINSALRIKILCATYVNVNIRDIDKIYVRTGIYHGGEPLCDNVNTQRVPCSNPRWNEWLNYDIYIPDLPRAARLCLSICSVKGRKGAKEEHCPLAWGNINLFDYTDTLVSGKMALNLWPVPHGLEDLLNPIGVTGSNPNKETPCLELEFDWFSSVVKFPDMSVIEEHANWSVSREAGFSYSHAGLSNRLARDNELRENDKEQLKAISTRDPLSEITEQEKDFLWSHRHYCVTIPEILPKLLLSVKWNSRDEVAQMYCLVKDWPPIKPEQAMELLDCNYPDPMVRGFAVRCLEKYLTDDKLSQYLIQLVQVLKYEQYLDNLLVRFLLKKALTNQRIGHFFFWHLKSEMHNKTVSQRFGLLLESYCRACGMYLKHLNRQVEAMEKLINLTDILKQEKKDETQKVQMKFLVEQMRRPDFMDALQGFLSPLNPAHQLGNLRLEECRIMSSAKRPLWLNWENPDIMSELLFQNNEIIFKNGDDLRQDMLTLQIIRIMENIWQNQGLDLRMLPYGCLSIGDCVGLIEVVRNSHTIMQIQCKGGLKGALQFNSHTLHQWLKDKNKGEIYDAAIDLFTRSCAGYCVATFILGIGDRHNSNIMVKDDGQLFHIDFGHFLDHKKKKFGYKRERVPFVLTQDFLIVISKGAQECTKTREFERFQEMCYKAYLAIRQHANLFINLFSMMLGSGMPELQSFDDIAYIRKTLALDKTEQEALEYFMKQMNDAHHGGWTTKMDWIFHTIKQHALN
Sequence of Epidermal growth factor receptor (Homo sapiens) (P00533 whole entry): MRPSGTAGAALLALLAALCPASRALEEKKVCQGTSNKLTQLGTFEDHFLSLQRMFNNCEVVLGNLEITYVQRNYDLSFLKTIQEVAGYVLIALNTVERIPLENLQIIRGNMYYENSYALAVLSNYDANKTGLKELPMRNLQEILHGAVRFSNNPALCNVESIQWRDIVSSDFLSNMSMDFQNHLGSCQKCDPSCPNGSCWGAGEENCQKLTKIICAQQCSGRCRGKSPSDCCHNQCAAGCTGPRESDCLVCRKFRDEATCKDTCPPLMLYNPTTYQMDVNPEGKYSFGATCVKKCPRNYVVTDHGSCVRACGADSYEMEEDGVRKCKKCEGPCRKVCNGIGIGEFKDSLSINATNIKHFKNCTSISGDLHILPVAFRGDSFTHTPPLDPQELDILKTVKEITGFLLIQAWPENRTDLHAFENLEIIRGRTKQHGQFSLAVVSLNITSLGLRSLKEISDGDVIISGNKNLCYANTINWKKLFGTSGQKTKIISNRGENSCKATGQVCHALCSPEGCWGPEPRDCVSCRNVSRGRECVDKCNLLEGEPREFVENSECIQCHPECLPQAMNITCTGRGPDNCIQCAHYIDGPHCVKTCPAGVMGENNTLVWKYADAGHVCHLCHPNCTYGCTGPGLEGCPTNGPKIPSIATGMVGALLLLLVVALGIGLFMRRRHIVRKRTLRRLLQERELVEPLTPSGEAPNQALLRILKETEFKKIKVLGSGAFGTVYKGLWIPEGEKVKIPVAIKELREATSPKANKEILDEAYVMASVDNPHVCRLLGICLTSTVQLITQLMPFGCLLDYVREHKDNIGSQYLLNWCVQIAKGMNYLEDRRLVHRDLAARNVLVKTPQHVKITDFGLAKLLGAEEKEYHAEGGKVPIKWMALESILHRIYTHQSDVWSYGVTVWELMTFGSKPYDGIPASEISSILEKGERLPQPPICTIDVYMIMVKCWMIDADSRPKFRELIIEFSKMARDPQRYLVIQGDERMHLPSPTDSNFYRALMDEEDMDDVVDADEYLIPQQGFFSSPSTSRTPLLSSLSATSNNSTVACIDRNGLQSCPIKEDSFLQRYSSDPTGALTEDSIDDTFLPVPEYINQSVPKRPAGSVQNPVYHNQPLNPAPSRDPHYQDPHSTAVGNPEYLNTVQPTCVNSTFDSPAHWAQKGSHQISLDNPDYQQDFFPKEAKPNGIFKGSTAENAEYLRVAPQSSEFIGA
Sequence of Vascular endothelial growth factor receptor 2 (Homo sapiens) (P35968 whole entry): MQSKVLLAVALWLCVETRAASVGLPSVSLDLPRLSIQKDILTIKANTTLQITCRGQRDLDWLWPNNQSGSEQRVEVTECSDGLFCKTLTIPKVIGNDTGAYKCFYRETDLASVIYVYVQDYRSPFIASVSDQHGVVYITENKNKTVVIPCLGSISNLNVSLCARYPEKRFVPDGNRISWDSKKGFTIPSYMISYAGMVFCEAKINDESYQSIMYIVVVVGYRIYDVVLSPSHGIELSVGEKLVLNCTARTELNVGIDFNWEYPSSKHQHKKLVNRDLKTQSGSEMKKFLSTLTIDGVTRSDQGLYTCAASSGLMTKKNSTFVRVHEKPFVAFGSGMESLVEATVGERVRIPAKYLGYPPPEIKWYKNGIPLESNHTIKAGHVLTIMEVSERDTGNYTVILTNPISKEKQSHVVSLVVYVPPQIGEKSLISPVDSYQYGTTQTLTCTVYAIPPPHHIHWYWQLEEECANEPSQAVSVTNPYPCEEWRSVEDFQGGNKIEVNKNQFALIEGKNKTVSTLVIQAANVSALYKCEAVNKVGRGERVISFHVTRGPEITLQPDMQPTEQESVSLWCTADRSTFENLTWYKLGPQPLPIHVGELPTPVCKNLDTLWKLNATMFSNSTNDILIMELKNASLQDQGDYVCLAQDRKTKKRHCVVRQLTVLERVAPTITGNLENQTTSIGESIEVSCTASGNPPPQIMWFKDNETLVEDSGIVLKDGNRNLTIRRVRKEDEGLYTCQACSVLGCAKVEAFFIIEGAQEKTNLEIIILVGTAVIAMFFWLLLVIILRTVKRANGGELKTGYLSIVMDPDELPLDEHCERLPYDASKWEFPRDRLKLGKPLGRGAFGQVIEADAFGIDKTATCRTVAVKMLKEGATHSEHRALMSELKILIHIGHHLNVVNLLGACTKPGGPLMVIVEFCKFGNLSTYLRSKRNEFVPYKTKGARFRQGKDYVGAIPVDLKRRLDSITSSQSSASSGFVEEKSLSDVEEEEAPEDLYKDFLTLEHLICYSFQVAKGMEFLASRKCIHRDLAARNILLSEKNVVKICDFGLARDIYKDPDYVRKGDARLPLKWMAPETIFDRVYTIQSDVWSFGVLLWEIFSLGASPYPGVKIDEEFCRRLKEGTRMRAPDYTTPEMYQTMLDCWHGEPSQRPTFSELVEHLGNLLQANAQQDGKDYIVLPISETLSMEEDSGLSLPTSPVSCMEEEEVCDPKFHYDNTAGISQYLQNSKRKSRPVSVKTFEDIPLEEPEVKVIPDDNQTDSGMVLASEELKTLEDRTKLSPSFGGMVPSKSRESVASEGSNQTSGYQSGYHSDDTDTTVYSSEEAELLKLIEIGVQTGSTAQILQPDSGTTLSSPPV

Compound | IC50 (NCI-H1975) | IC50 (NCI-H460) | IC50 (MCF7) | IC50 [1] | IC50 (A549) | IC50 (HeLa [2]) | IC50 [3] | inhibition [4] | IC50 [5] | IC50 (HeLa [6]) | Ratio IC50 [7] | Ratio IC50 [8] | Ratio IC50 [9] | inhibition [10] | further results
CS(=O)(=O)N1CCN(Cc2ccc(-c3nc(-c4ccc(NC(=O)Nn5cnnc5)cc4)nc(N4CCOCC4)n3)s2)CC1 | > 100 µM | > 100 µM | 1.82 µM | > 100 µM | 50.4 µM | > 100 µM | 26.9 µM | 46.8% | 1.74 µM | 42.8 µM | – | – | – | – | –
CS(=O)(=O)N1CCN(Cc2ccc(-c3nc(-c4ccc(NC(=O)Nc5ccccn5)cc4)nc(N4CCOCC4)n3)s2)CC1 | 0.076 µM | 7.57 µM | 3.34 µM | 10.5 µM | 10.1 µM | 9.27 µM | 3.52 µM | 16.1% | 3 µM | 6.01 µM | – | – | – | – | –
CS(=O)(=O)N1CCN(Cc2ccc(-c3nc(-c4ccc(NC(=O)NN5CCOCC5)cc4)nc(N4CCOCC4)n3)s2)CC1 | 0.11 µM | > 100 µM | 9.11 µM | 26.9 µM | 20.5 µM | 22.6 µM | 15.9 µM | – | – | 31.2 µM | 1.38 | 186.72 | 0.34 | – | –
CS(=O)(=O)N1CCN(Cc2ccc(-c3nc(-c4ccc(NC(=O)Nc5nn[nH]n5)cc4)nc(N4CCOCC4)n3)s2)CC1 | > 100 µM | > 100 µM | 15.2 µM | > 100 µM | 2.82 µM | > 100 µM | > 100 µM | – | – | 48.5 µM | – | – | – | – | –
CS(=O)(=O)N1CCN(Cc2ccc(-c3nc(-c4ccc(NC(=O)Nc5ccncn5)cc4)nc(N4CCOCC4)n3)s2)CC1 | 5.53 µM | > 100 µM | 30.7 µM | 25.2 µM | 44.9 µM | > 100 µM | > 100 µM | 43.4% | – | 28.2 µM | – | 8.12 | 1.21 | 86.8% | –
CS(=O)(=O)N1CCN(Cc2ccc(-c3nc(-c4ccc(NC(=O)Nc5nc[nH]n5)cc4)nc(N4CCOCC4)n3)s2)CC1 | 22.5 µM | > 100 µM | 13 µM | 18.2 µM | 13.2 µM | 21.4 µM | 12.3 µM | 94.5% | – | 25.5 µM | 1.19 | 0.59 | 0.71 | 97.3% | –
CS(=O)(=O)N1CCN(Cc2ccc(-c3nc(-c4ccc(NC(=O)NC5CN6CCC5CC6)cc4)nc(N4CCOCC4)n3)s2)CC1 (centres undefined) | 40.5 µM | > 100 µM | 7.46 µM | 21.5 µM | 2.38 µM | 17.2 µM | 22.9 µM | 9% | 8.97 µM | 17.1 µM | 0.99 | 0.059 | 0.35 | 17.1% | IC50 [11]: 7.96 µM; Ratio IC50 (Homo sapiens): 1.13
CS(=O)(=O)N1CCN(Cc2ccc(-c3nc(-c4ccc(NC(=O)Nc5ncc[nH]5)cc4)nc(N4CCOCC4)n3)s2)CC1 | > 100 µM | 14.3 µM | 20.1 µM | > 100 µM | 48.9 µM | 38.5 µM | 22.6 µM | 47.7% | 1.79 µM | 7.58 µM | – | – | – | – | IC50 (NCI-H2228; nci-h2228): Not Active
Cn1ccnc1NC(=O)Nc1ccc(-c2nc(-c3ccc(CN4CCN(S(C)(=O)=O)CC4)s3)nc(N3CCOCC3)n2)cc1 | 7.86 µM | > 100 µM | > 100 µM | > 100 µM | 53.9 µM | > 100 µM | – | – | – | 13.8 µM | – | – | – | – | –
CS(=O)(=O)N1CCN(Cc2ccc(-c3nc(-c4ccc(NC(=O)Nc5cncnc5)cc4)nc(N4CCOCC4)n3)s2)CC1 | 6.78 µM | > 100 µM | 7.61 µM | 14.9 µM | 10.8 µM | 28 µM | 20.1 µM | – | – | 15 µM | 0.54 | 1.59 | 0.51 | – | –
CS(=O)(=O)N1CCN(Cc2cc3nc(-c4cccc5[nH]ncc45)nc(N4CCOCC4)c3s2)CC1 [PICTILISIB] | 2.42 µM | 2.68 µM | 1.2 µM | 3.13 µM | 1.03 µM | 2.97 µM | 1.25 µM | 97.8% | – | 3.15 µM | – | – | – | 90.6% | inhibition [12]: inactive; inhibition [13]: inactive; IC50 (NCI-H2228; Homo sapiens, NCI-H2228, 72 h, read-out: IC50): 1.07 µM; inhibition [14]: inactive
CS(=O)(=O)N1CCN(Cc2ccc(-c3nc(-c4ccc(NC(=O)Nc5ccc6[nH]ncc6c5)cc4)nc(N4CCOCC4)n3)s2)CC1 | 31.2 µM | 20.5 µM | 0.11 µM | 15.1 µM | 14.2 µM | 10.5 µM | 12.6 µM | 93% | – | 2.14 µM | 0.2 | 0.46 | 0.007 | 96.4% | –
Cn1nccc1NC(=O)Nc1ccc(-c2nc(-c3ccc(CN4CCN(S(C)(=O)=O)CC4)s3)nc(N3CCOCC3)n2)cc1 | 9.87 µM | 10.6 µM | 0.42 µM | 8.61 µM | 16.4 µM | 31.7 µM | 15.9 µM | 47.5% | 1.33 µM | 45.1 µM | 1.43 | 1.67 | 0.048 | 72.7% | IC50 [11]: 0.571 µM; Ratio IC50 (Homo sapiens): 2.33
CS(=O)(=O)N1CCN(Cc2ccc(-c3nc(-c4ccc(NC(=O)Nc5ncccn5)cc4)nc(N4CCOCC4)n3)s2)CC1 | 12.7 µM | 17.9 µM | 12.5 µM | > 100 µM | 13.1 µM | 12.6 µM | > 100 µM | 91.3% | – | 15.2 µM | 1.21 | 1.03 | – | 93% | –
